Experimental data taken from the supplement of paper PMC10627819.

Tests used:
S. aureus DSM 20231 = experiment: Bliss interaction score (quartile over a dose matrix) (fitness difference); higher = more antagonism (negative = synergy)
Summary of the method: (§1)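 The Bliss score was calculated by subtracting the expected fitness, the product of single-drug values, from the observed fitness. OD595 at entry into stationary phase, over the plate's robust no-drug mean and capped at 1, served as the fitness readout. Single-drug values were inferred from combination data, and scores are summarised by quartiles across technical, biological and donor/recipient replicates.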

B. subtilis 168 = experiment: as above
Summary of the method: as §1

S. pneumoniae D39V [1] = experiment: as above
Summary of the method: as §1

S. aureus Newman [2] = experiment: as above
Summary of the method: as §1

S. aureus Newman [3] = experiment: fitness (endpoint OD595 vs no drug) (fraction); higher = more growth; details: one replicate
Summary of the method: (§2)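 Fitness was measured as bacterial growth in 384-well plates inoculated at OD595 0.01 (30 µl, or 55 µl for S. pneumoniae). Media were TSB, LB Lennox or CY, at 37 °C. OD595 was read every 30 min for 14 h and background-subtracted against the first reading. Fitness is OD595 at the transition into stationary phase divided by the robust mean of no-drug control wells, capped at 1.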

S. pneumoniae D39V [4] = experiment: as above
Summary of the method: as §2
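For Bliss interaction score (quartile over a dose matrix) in this document: first quartile when negative (synergy) and third quartile when positive (antagonism).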

C/C(=C\C(=O)OCCCCCCCCC(=O)O)C[C@@H]1OC[C@H](C[C@@H]2O[C@H]2[C@@H](C)[C@H](C)O)[C@@H](O)[C@H]1O [Pseudomonic acid] + CCCCCCCCCC(=O)N[C@@H]1[C@H]([C@@H]([C@H](O[C@H]1OC2=C3C=C4C=C2OC5=C(C=C(C=C5)[C@H]([C@H]6C(=O)N[C@@H](C7=C(C(=CC(=C7)O)OC8[C@H]([C@H]([C@@H]([C@H](O8)CO)O)O)O)C9=C(C=CC(=C9)[C@H](C(=O)N6)NC(=O)[C@@H]4NC(=O)[C@@H]1C2=CC(=CC(=C2)OC2=C(C=CC(=C2)[C@H](C(=O)N[C@H](CC2=CC(=C(O3)C=C2)Cl)C(=O)N1)N)O)O)O)C(=O)O)O[C@H]1[C@@H]([C@H]([C@@H]([C@H](O1)CO)O)O)NC(=O)C)Cl)CO)O)O [Teicoplanin]
main component drawn
Details	Bliss interaction score
B. subtilis 168	0.116
S. aureus DSM 20231	-0.0304
S. aureus Newman [2]	-0.0375
S. pneumoniae D39V [1]	0.0843

fitness, S. aureus Newman [3], main component drawn
Details	first compound 0.0313 µg/mL	first compound 0.0625 µg/mL	first compound 0.125 µg/mL
partner 0.1562 µg/mL	0.0547	0.0391	0.0327
partner 0.3125 µg/mL	0.0341	0.0111	0.005
partner 0.625 µg/mL	0.0079	0.0049	0.0139

C/C(=C\C(=O)OCCCCCCCCC(=O)O)C[C@@H]1OC[C@H](C[C@@H]2O[C@H]2[C@@H](C)[C@H](C)O)[C@@H](O)[C@H]1O [Pseudomonic acid] + CN1C2=CC=CC=C2N=C3C1=CC=CC3=O [Pyocyanin]
Details	Bliss interaction score
B. subtilis 168	-0.0558
S. aureus DSM 20231	0.0163
S. aureus Newman [2]	0.0185
S. pneumoniae D39V [1]	-0.0764

Details	fitness
S. aureus Newman [3], first compound 0.0313 µg/mL, partner 1.25 µg/mL	0.0664
S. aureus Newman [3], first compound 0.0313 µg/mL, partner 2.5 µg/mL	0.0672
S. aureus Newman [3], first compound 0.0313 µg/mL, partner 5 µg/mL	0.0481
S. aureus Newman [3], first compound 0.0625 µg/mL, partner 1.25 µg/mL	0.0399
S. aureus Newman [3], first compound 0.0625 µg/mL, partner 2.5 µg/mL	0.0381
S. aureus Newman [3], first compound 0.0625 µg/mL, partner 5 µg/mL	0.0417
S. aureus Newman [3], first compound 0.125 µg/mL, partner 1.25 µg/mL	0.0453
S. aureus Newman [3], first compound 0.125 µg/mL, partner 2.5 µg/mL	0.0514
S. aureus Newman [3], first compound 0.125 µg/mL, partner 5 µg/mL	0.057
S. pneumoniae D39V [4], first compound 0.03 µg/mL, partner 0.325 µg/mL	0.955
S. pneumoniae D39V [4], first compound 0.03 µg/mL, partner 0.65 µg/mL	0.932
S. pneumoniae D39V [4], first compound 0.06 µg/mL, partner 0.325 µg/mL	0.849
S. pneumoniae D39V [4], first compound 0.06 µg/mL, partner 0.65 µg/mL	0.843
S. pneumoniae D39V [4], first compound 0.06 µg/mL, partner 1.3 µg/mL	0.55
S. pneumoniae D39V [4], first compound 0.12 µg/mL, partner 0.325 µg/mL	0.611
S. pneumoniae D39V [4], first compound 0.12 µg/mL, partner 0.65 µg/mL	0.554
S. pneumoniae D39V [4], first compound 0.12 µg/mL, partner 1.3 µg/mL	0.395

C/C(=C\C(=O)OCCCCCCCCC(=O)O)C[C@@H]1OC[C@H](C[C@@H]2O[C@H]2[C@@H](C)[C@H](C)O)[C@@H](O)[C@H]1O [Pseudomonic acid] + CN(C)c1cc(NC(=O)CNC(C)(C)C)c(O)c2c1C[C@H]1C[C@H]3[C@H](N(C)C)C(O)=C(C(N)=O)C(=O)[C@@]3(O)C(O)=C1C2=O [Tigecycline]
Details	Bliss interaction score
B. subtilis 168	0.07
S. aureus DSM 20231	0.006
S. aureus Newman [2]	-0.0182
S. pneumoniae D39V [1]	-0.124

fitness
Details	first compound 0.03 µg/mL	first compound 0.0313 µg/mL	first compound 0.06 µg/mL	first compound 0.0625 µg/mL	first compound 0.12 µg/mL	first compound 0.125 µg/mL
S. aureus Newman [3], partner 0.039 µg/mL	–	0.0303	–	0.0332	–	0.029
S. aureus Newman [3], partner 0.078 µg/mL	–	0.0326	–	0.0257	–	0.0238
S. aureus Newman [3], partner 0.156 µg/mL	–	0.0698	–	0.0522	–	0.0728
S. pneumoniae D39V [4], partner 0.65 µg/mL	0.872	–	0.739	–	0.575	–
S. pneumoniae D39V [4], partner 1.3 µg/mL	0.923	–	0.747	–	0.612	–
S. pneumoniae D39V [4], partner 2.6 µg/mL	0.879	–	0.752	–	0.59	–

C/C(=C\C(=O)OCCCCCCCCC(=O)O)C[C@@H]1OC[C@H](C[C@@H]2O[C@H]2[C@@H](C)[C@H](C)O)[C@@H](O)[C@H]1O [Pseudomonic acid] + CN(N=O)C(=O)N[C@@H](C=O)[C@@H](O)[C@H](O)[C@H](O)CO [Streptozotocin]
Details	Bliss interaction score
B. subtilis 168	0.105
S. aureus DSM 20231	-0.011
S. aureus Newman [2]	-0.0211
S. pneumoniae D39V [1]	-0.0598

fitness
Details	first compound 0.03 µg/mL	first compound 0.0313 µg/mL	first compound 0.06 µg/mL	first compound 0.0625 µg/mL	first compound 0.12 µg/mL	first compound 0.125 µg/mL
S. aureus Newman [3], partner 0.15 µg/mL	–	0.0359	–	0.0417	–	0.0264
S. aureus Newman [3], partner 0.3 µg/mL	–	0.0204	–	0.0023	–	0.0089
S. aureus Newman [3], partner 0.6 µg/mL	–	0.0135	–	0.0039	–	0.0091
S. pneumoniae D39V [4], partner 1.2 µg/mL	0.834	–	0.722	–	0.533	–
S. pneumoniae D39V [4], partner 2.4 µg/mL	0.885	–	0.718	–	0.538	–
S. pneumoniae D39V [4], partner 4.8 µg/mL	0.874	–	0.752	–	0.56	–

C/C(=C\C(=O)OCCCCCCCCC(=O)O)C[C@@H]1OC[C@H](C[C@@H]2O[C@H]2[C@@H](C)[C@H](C)O)[C@@H](O)[C@H]1O [Pseudomonic acid] + CN[C@@H]1[C@H](O)[C@H](NC)[C@H]2O[C@@]3(O)C(=O)C[C@@H](C)O[C@H]3O[C@@H]2[C@H]1O [Spectinomycin]
Details	Bliss interaction score
B. subtilis 168	0.0538
S. aureus DSM 20231	-0.0116
S. aureus Newman [2]	-0.0301
S. pneumoniae D39V [1]	-0.0665

fitness
Details	first compound 0.03 µg/mL	first compound 0.0313 µg/mL	first compound 0.06 µg/mL	first compound 0.0625 µg/mL	first compound 0.12 µg/mL	first compound 0.125 µg/mL
S. aureus Newman [3], partner 4 µg/mL	–	0.0277	–	0.0288	–	0.0466
S. aureus Newman [3], partner 8 µg/mL	–	0.0165	–	0.0234	–	0.0364
S. aureus Newman [3], partner 16 µg/mL	–	0.0048	–	0.0214	–	0.0111
S. pneumoniae D39V [4], partner 4 µg/mL	0.899	–	0.87	–	0.564	–
S. pneumoniae D39V [4], partner 8 µg/mL	0.924	–	0.793	–	0.53	–
S. pneumoniae D39V [4], partner 16 µg/mL	0.756	–	0.716	–	0.443	–
